According to US20260015360A1 (MOMA Therapeutics, Inc., priority 2023, published 2026):

Tests used:
[1] = test system: DLD1 BRCA2 (−/−) cells; assay: DLD1 viability assay (CellTiter-Glo, 7 days), DLD1 BRCA2 (−/−); assay type: cell-based; conditions: Homo sapiens, DLD-1, 168 h, read-out: Viability IC50 (μM) DLD1 BRCA2 null
Procedure: (§1) The seeding densities are pre-determined from the growth curve kinetics performed to ensure log linear phase of cell growth for these 2 cell lines. These assay plates are then placed in the incubator at 37° C., 5% CO2, relative humidity>90% for a few hours before addition of test compounds. Compounds are dispensed using the Tecan HPD300 or Echo based on the plate map in the appropriate wells of the 384-well plates. […] After addition of the test compounds, the plates are incubated at 37° C., 5% CO2, relative humidity>90% for 7 days. CellTiter-Glo (Promega Cat. No. G7573), ATP detection reagent is prepared according to manufacturer's specifications. Cell assay plates are removed from incubator and bring to room temperature (RT) by letting them sit at bench top for at least 15 min. Using the MultiDrop liquid handler or a multichannel pipette, 35 μL/well of CTG is added and the plates are then placed shakes for 5 seconds, RT. These plates are then incubated for 30 minutes in the dark at RT before measuring luminescence using Spectramax/Enspire/Ensight/Envision/PheraSTAR.

[2] = test system: DLD1 WT cells; assay: DLD1 viability assay (CellTiter-Glo, 7 days), DLD1 WT; assay type: cell-based; conditions: Homo sapiens, DLD-1, 168 h
Procedure: as §1

SMILES	IC50 [1] [µM]	IC50 [2] [µM]
COc1cnc(Cl)cc1-c1cc(C)ncc1C(=O)Nc1nc2ncc([C@@H]3CCN(CC(F)(F)F)C3)nc2s1 (single isomer, unassigned) [Example 365, (R or S)-2′-chloro-5′-methoxy-6-methyl-N-(6-(1-(2,2,2-trifluoroethyl)pyrrolidin-3-yl)thiazolo[4,5-b]pyrazin-2-yl)-[4,4′-bipyridine]-3-carboxamide]	0.001 to 0.1	> 10
COc1cnc(Cl)cc1-c1cc(C)ncc1C(=O)Nc1nc2ncc(N3CCOC4CCCC43)nc2s1 (centres unmarked) [Example 424, 2′-chloro-N-(6-(hexahydrocyclopenta[b][1, 4]oxazin-4(4aH)-yl)thiazolo[4,5-b]pyrazin-2-yl)-5′-methoxy-6-methyl-[4,4′-bipyridine]-3-carboxamide]	0.001 to 0.1	> 10
COc1cnc(Cl)cc1-c1cc(C)ncc1C(=O)Nc1nc2ncc(N3CCCCC3)nc2s1 [Example 491, 2′-chloro-5′-methoxy-6-methyl-N-(6-(piperidin-1-yl)thiazolo[4,5-b]pyrazin-2-yl)-[4,4′-bipyridine]-3-carboxamide]	0.001 to 0.1	> 10
COc1cnc(Cl)cc1-c1cc(C)ncc1C(=O)Nc1nc2ncc(N3CC[C@](C)(OC)[C@H](F)C3)nc2s1 (single isomer, unassigned) [Example 362, 2′-chloro-N-(6-((3R or S,4S or R)-3-fluoro-4-methoxy-4-methylpiperidin-1-yl)thiazolo[4,5-b]pyrazin-2-yl)-5′-methoxy-6-methyl-[4,4′-bipyridine]-3-carboxamide]	0.1 to 0.25	> 10
COc1ccc(C#N)cc1-c1cc(C)ncc1C(=O)Nc1nc2ncc(C3=CCC(CO)CC3)nc2s1 (centres unmarked) [Example 421, 4-(5-cyano-2-methoxyphenyl)-N-(6-(4-(hydroxymethyl)cyclohex-1-en-1-yl)thiazolo[4,5-b]pyrazin-2-yl)-6-methylnicotinamide]	0.001 to 0.1	> 10
COc1cnc(Cl)cc1-c1cc(C)ncc1C(=O)Nc1nc2ncc(N3CCC(C)CC3)nc2s1 [Example 474, 2′-chloro-5′-methoxy-6-methyl-N-(6-(4-methylpiperidin-1-yl)thiazolo[4,5-b]pyrazin-2-yl)-[4,4′-bipyridine]-3-carboxamide]	0.001 to 0.1	7.5 to 10
COc1cnc(Cl)cc1-c1cc(C)ncc1C(=O)Nc1nc2ncc([C@@H]3CCOC(C)(C)C3)nc2s1 (single isomer, unassigned) [Example 382, (R or S)-2′-chloro-N-(6-(2,2-dimethyltetrahydro-2H-pyran-4-yl)thiazolo[4,5-b]pyrazin-2-yl)-5′-methoxy-6-methyl-[4,4′-bipyridine]-3-carboxamide]	0.001 to 0.1	> 10
COc1cnc(Cl)cc1-c1cc(C)ncc1C(=O)Nc1nc2ncc(N3C[C@@H](C)OC[C@H]3C)nc2s1 [Example 409, 2′-chloro-N-(6-((2R,5R)-2,5-dimethylmorpholino)thiazolo [4,5-b]pyrazin-2-yl)-5′-methoxy-6-methyl-[4,4′-bipyridine]-3-carboxamide]	0.001 to 0.1	> 10
COc1cnc(Cl)cc1-c1cc(C)ncc1C(=O)Nc1nc2ncc(C3=CCOC(C)C3)nc2s1 (centres unmarked) [Example 443, 2′-chloro-5′-methoxy-6-methyl-N-(6-(2-methyl-3,6-dihydro-2H-pyran-4-yl)thiazolo[4,5-b]pyrazin-2-yl)-[4,4′-bipyridine]-3-carboxamide]	0.001 to 0.1	> 10
COc1cnc(Cl)cc1-c1cc(C)ncc1C(=O)Nc1nc2ncc(N3CCC(C#N)CC3)nc2s1 [Example 475, 2′-chloro-N-(6-(4-cyanopiperidin-1-yl)thiazolo[4,5-b]pyrazin-2-yl)-5′-methoxy-6-methyl-[4,4′-bipyridine]-3-carboxamide]	0.001 to 0.1	> 10
COc1cnc(Cl)cc1-c1cc(C)ncc1C(=O)Nc1nc2ncc(N3CCC(C)(O)C(F)C3)nc2s1 (centres unmarked) [Example 465, 2′-chloro-N-(6-(3-fluoro-4-hydroxy-4-methylpiperidin-1-yl)thiazolo[4,5-b]pyrazin-2-yl)-5′-methoxy-6-methyl-[4,4′-bipyridine]-3-carboxamide]	0.001 to 0.1	> 10
COc1cnc(Cl)cc1-c1cc(C)ncc1C(=O)Nc1nc2ncc(N3CCOCC3)nc2s1 [Example 483, 2′-chloro-5′-methoxy-6-methyl-N-(6-morpholinothiazolo[4,5-b]pyrazin-2-yl)-[4,4′-bipyridine]-3-carboxamide]	0.1 to 0.25	> 10
COc1cnc(Cl)cc1-c1cc(C)ncc1C(=O)Nc1nc2ncc(N3CCC(CC#N)CC3)nc2s1 [Example 467, 2′-chloro-N-(6-(4-(cyanomethyl)piperidin-1-yl)thiazolo[4,5-b]pyrazin-2-yl)-5′-methoxy-6-methyl-[4,4′-bipyridine]-3-carboxamide]	0.001 to 0.1	> 10
COc1nnc(C(F)F)cc1-c1cc(C)ncc1C(=O)Nc1nc2ncc(-c3ccnc(C)c3)nc2s1 [Example 384, 4-(6-(difluoromethyl)-3-methoxypyridazin-4-yl)-6-methyl-N-(6-(2-methylpyridin-4-yl)thiazolo[4,5-b]pyrazin-2-yl)nicotinamide]	0.1 to 0.25	> 10
COc1cnc(Cl)cc1-c1cc(C)ncc1C(=O)Nc1nc2ncc(N3CCC(C(F)(F)F)CC3)nc2s1 [Example 472, 2′-chloro-5′-methoxy-6-methyl-N-(6-(4-(trifluoromethyl)piperidin-1-yl)thiazolo[4,5-b]pyrazin-2-yl)-[4,4′-bipyridine]-3-carboxamide]	0.001 to 0.1	5 to 7.5
COc1cnc(Cl)cc1-c1cc(C)ncc1C(=O)Nc1nc2ncc(N3CC[C@H](OC)[C@@H](F)C3)nc2s1 [Example 452, 2′-chloro-N-(6-((3S,4S)-3-fluoro-4-methoxypiperidin-1-yl)thiazolo[4,5-b]pyrazin-2-yl)-5′-methoxy-6-methyl-[4,4′-bipyridine]-3-carboxamide]	0.001 to 0.1	> 10
COc1cnc(Cl)cc1-c1cc(C)ncc1C(=O)Nc1nc2ncc(C3=CCC(OC)(C(F)F)CC3)nc2s1 (centres unmarked) [Example 388, 2′-chloro-N-(6-(4-(difluoromethyl)-4-methoxycyclohex-1-en-1-yl)thiazolo[4,5-b]pyrazin-2-yl)-5′-methoxy-6-methyl-[4,4′-bipyridine]-3-carboxamide]	0.001 to 0.1	> 10
COc1cnc(Cl)cc1-c1cc(C)ncc1C(=O)Nc1nc2ncc(C3CCC(OC)(C(F)F)CC3)nc2s1 (centres unmarked) [Example 383, 2′-chloro-N-(6-(4-(difluoromethyl)-4-methoxycyclohexyl)thiazolo [4,5-b]pyrazin-2-yl)-5′-methoxy-6-methyl-[4,4′-bipyridine]-3-carboxamide]	0.001 to 0.1	> 10
COc1cnc(Cl)cc1-c1cc(C)ncc1C(=O)Nc1nc2ncc(N3CC[C@](C)(O)[C@H](F)C3)nc2s1 (single isomer, unassigned) [Example 375, 2′-chloro-N-(6-((3R or S,4S or R)-3-fluoro-4-hydroxy-4-methylpiperidin-1-yl)thiazolo[4,5-b]pyrazin-2-yl)-5′-methoxy-6-methyl-[4,4′-bipyridine]-3-carboxamide]	0.001 to 0.1	> 10
COc1cnc(Cl)cc1-c1cc(C)ncc1C(=O)Nc1nc2ncc(N3CCC(C4CC4)CC3)nc2s1 [Example 466, 2′-chloro-N-(6-(4-cyclopropylpiperidin-1-yl)thiazolo[4,5-b]pyrazin-2-yl)-5′-methoxy-6-methyl-[4,4′-bipyridine]-3-carboxamide]	0.001 to 0.1	7.5 to 10
COc1cnc(Cl)cc1-c1cc(C)ncc1C(=O)Nc1nc2ncc([C@H]3CCO[C@H](C)C3)nc2s1 (single isomer, unassigned) [Example 431, 2′-chloro-5′-methoxy-6-methyl-N-(6-((2R or S,4S or R)-2-methyltetrahydro-2H-pyran-4-yl)thiazolo[4,5-b]pyrazin-2-yl)-[4,4′-bipyridine]-3-carboxamide]	0.001 to 0.1	> 10
COc1cnc(Cl)cc1-c1cc(C)ncc1C(=O)Nc1nc2ncc(C3CN(CC(F)(F)F)C3)nc2s1 (single isomer, unassigned) [Example 378, 2′-chloro-5′-methoxy-6-methyl-N-(6-(1-(2,2,2-trifluoroethyl)azetidin-3-yl)thiazolo[4,5-b]pyrazin-2-yl)-[4,4′-bipyridine]-3-carboxamide]	0.001 to 0.1	> 10
COc1cnc(Cl)cc1-c1cc(C)ncc1C(=O)Nc1nc2ncc(C3CCOC(C)(C)C3)nc2s1 (centres unmarked) [Example 389, 2′-chloro-N-(6-(2,2-dimethyltetrahydro-2H-pyran-4-yl)thiazolo[4,5-b]pyrazin-2-yl)-5′-methoxy-6-methyl-[4,4′-bipyridine]-3-carboxamide]	0.001 to 0.1	> 10
COc1cnc(Cl)cc1-c1cc(C)ncc1C(=O)Nc1nc2ncc(N3CCC[C@@H](C)C3)nc2s1 [Example 485, (R)-2′-chloro-5′-methoxy-6-methyl-N-(6-(3-methylpiperidin-1-yl)thiazolo[4,5-b]pyrazin-2-yl)-[4,4′-bipyridine]-3-carboxamide]	0.1 to 0.25	> 10
COc1cnc(Cl)cc1-c1cc(C)ncc1C(=O)Nc1nc2ncc(N3C[C@H](C)OC[C@@H]3C)nc2s1 [Example 412, 2′-chloro-N-(6-((2S,5S)-2,5-dimethylmorpholino)thiazolo [4,5-b]pyrazin-2-yl)-5′-methoxy-6-methyl-[4,4′-bipyridine]-3-carboxamide]	0.001 to 0.1	> 10
